The supplement of paper PMC13380429

Assays:
Settings in all cases: 72 h
Caco-2 [1] = assay: cell viability relative to DMSO; higher = less toxic
HepG2 [2] = assay: as above
U2OS [3] = assay: as above
Vero E6 [4] = assay: as above
Caco-2 [5] = assay: relative viability EC50 (midpoint between 100% and the lowest measured viability); higher = less toxic
HepG2 [6] = assay: as above
U2OS [7] = assay: as above
Vero E6 [8] = assay: as above
Caco-2 [9] = assay: drug sensitivity score (DSS) for viability; higher = more toxic; extreme values may be limits of the assay
HepG2 [10] = assay: as above
U2OS [11] = assay: as above
Vero E6 [12] = assay: as above
Calu-3 [13] = assay: cell viability relative to DMSO; higher = less toxic
Calu-3 [14] = assay: drug sensitivity score (DSS) for viability; higher = more toxic; extreme values may be limits of the assay
Calu-3 [15] = assay: relative viability EC50 (midpoint between 100% and the lowest measured viability); higher = less toxic

| Compound | cell viability (Caco-2 [1]; 1 nM) | cell viability (Caco-2 [1]; 10 nM) | cell viability (Caco-2 [1]; 100 nM) | cell viability (Caco-2 [1]; 1000 nM) | cell viability (Caco-2 [1]; 10000 nM) | cell viability (HepG2 [2]; 1 nM) | cell viability (HepG2 [2]; 10 nM) | cell viability (HepG2 [2]; 100 nM) | cell viability (HepG2 [2]; 1000 nM) | cell viability (HepG2 [2]; 10000 nM) | cell viability (U2OS [3]; 1 nM) | cell viability (U2OS [3]; 10 nM) | cell viability (U2OS [3]; 100 nM) | cell viability (U2OS [3]; 1000 nM) | cell viability (U2OS [3]; 10000 nM) | cell viability (Vero E6 [4]; 1 nM) | cell viability (Vero E6 [4]; 10 nM) | cell viability (Vero E6 [4]; 100 nM) | cell viability (Vero E6 [4]; 1000 nM) | cell viability (Vero E6 [4]; 10000 nM) | relative viability EC50 (Caco-2 [5]) | relative viability EC50 (HepG2 [6]) | relative viability EC50 (U2OS [7]) | relative viability EC50 (Vero E6 [8]) | drug sensitivity score (Caco-2 [9]) | drug sensitivity score (HepG2 [10]) | drug sensitivity score (U2OS [11]) | drug sensitivity score (Vero E6 [12]) | cell viability (Calu-3 [13]; 1 nM) | cell viability (Calu-3 [13]; 10 nM) | cell viability (Calu-3 [13]; 100 nM) | cell viability (Calu-3 [13]; 1000 nM) | cell viability (Calu-3 [13]; 10000 nM) | drug sensitivity score (Calu-3 [14]) | relative viability EC50 (Calu-3 [15]) |
| --- | --- | --- | --- | --- | --- | --- | --- | --- | --- | --- | --- | --- | --- | --- | --- | --- | --- | --- | --- | --- | --- | --- | --- | --- | --- | --- | --- | --- | --- | --- | --- | --- | --- | --- | --- |
| O=C(CC1NCCCC1O)Cn1cnc2cc(Br)c(Cl)cc2c1=O (stereo not given) [halofuginone] | 95% | 107% | 81.7% | 28.6% | 25.1% | 102% | 88.9% | 24.1% | 2.9% | 0.6% | 98.9% | 101% | 98.1% | 32.2% | 1.9% | 99.7% | 100% | 42% | 11.4% | 0% | 183 nM | 0.0439 µM | 0.678 µM | 0.0842 µM | 15.7 | 27.9 | 13.4 | 24.5 | – | – | – | – | – | – | – |
| CCS(=O)(=O)Nc1ccc2c(c1)/C(=C(/Nc1ccc(CN3CCCCC3)cc1)c1ccccc1)C(=O)N2 [hesperadin] | 95.1% | 91.8% | 90.7% | 68.7% | 48.4% | 99.1% | 94.4% | 58.8% | 8.8% | 5.1% | 102% | 94.3% | 80% | 22.1% | 0% | 92.7% | 101% | 82.7% | 73.2% | 16.9% | 512 nM | 0.119 µM | 0.329 µM | 1.52 µM | 6.9 | 21.5 | 16.9 | 7.6 | 107% | 95.7% | 84.8% | 70.3% | 62.1% | 6.8 | – |
| CC[C@H]1CN2CC[C@H]1C[C@@H]2[C@@H](O)c1ccnc2ccc(OC)cc12 [hydroquinidine] | 105% | 106% | 94.6% | 94.7% | 87.4% | 91.7% | 95.1% | 101% | 89.1% | 93.1% | 99.9% | 99.4% | 97.3% | 97.8% | 98.6% | 97.4% | 102% | 103% | 107% | 91% | > 10000 nM | > 10 µM | > 10 µM | > 10 µM | 0.1 | 0 | 0 | 0 | – | – | – | – | – | – | – |
| O=C(O)c1c(Sc2ccccc2)c2cc(Cl)ccc2n1Cc1ccc(Cl)cc1 [nTZDpa] | 97.1% | 97% | 105% | 96.6% | 90.4% | 96.9% | 92.1% | 96.8% | 97.3% | 90.7% | 96.6% | 101% | 92.1% | 96.2% | 101% | 99.6% | 96% | 99.5% | 95.4% | 89.8% | > 10000 nM | > 10 µM | > 10 µM | > 10 µM | 0 | 0 | 0 | 0 | – | – | – | – | – | – | – |
| NCCCCN [putrescine] | 118% | 102% | 102% | 89% | 93.1% | 110% | 101% | 110% | 97.3% | 93% | 99.2% | 97.1% | 97.6% | 93.6% | 96.7% | 104% | 112% | 100% | 98.1% | 90.4% | > 10000 nM | > 10 µM | > 10 µM | > 10 µM | 0.2 | 0 | 0 | 0 | – | – | – | – | – | – | – |
| Fc1ccc(Cn2c(NC3CCNCC3)nc3ccccc32)cc1 [tecastemizole] | 97.8% | 98.1% | 99% | 106% | 73.3% | 106% | 96.6% | 114% | 83.9% | 86.2% | 95% | 98% | 96.9% | 98.2% | 103% | 104% | 95.6% | 101% | 90% | 98.9% | – | > 10 µM | > 10 µM | > 10 µM | 0.8 | 1.4 | 0 | 0 | 90.7% | 99.2% | 107% | 99.5% | 102% | 0 | > 10 µM |
